Measurements published in patent publication US11427526B2, “Method of preparing hydroxytyrosol cinnamic acid ester with antioxidant and antibacterial activities” (XI'AN KANGYUANSHENG BIOMEDICAL TECHNOLOGY CO., LTD., priority 2020, dated 2022).
≈ marks a conversion by molar mass, not a printed value.

What was measured:
[1] = test system: methicillin-resistant Straphylococcus aureus MRSA 18-222; assay: MIC by microbroth dilution, MRSA 18-222; type: cell-based; conditions: for Minimum bacteriostatic concentration: strain MRSA 18-222
Description: (§1) The minimal inhibitory concentrations (MIC) of the compounds were determined by microbroth dilution method with gentamicin, cefazolin sodium and ceftriaxone sodium as positive control.
(§2) The experimental strains included methicillin-resistant Gram-positive bacteria: methicillin-resistant Straphylococcus aureus MRSA 18-222, 18-575; multiple drug-resistant Gram-negative bacteria: vancomycin-resistant Enterococci VRE 18-80, 18-94, multidrug-resistant Pseudomonas aeruginosa MDR-PA 18-1774, 18-202, carbapenem-resistant Acinetobacter baumannii CR-AB 18-183, 18-560. All the experimental strains were donated by Huashan Hospital affiliated to Fudan University (Institute of antibiotics, Fudan University) and used after routine identification.
(§3) Preparation of MHB medium: 20.0 g MHB medium was added to 1 L distilled water, boiled until completely dissolved, packed in conical bottles and sterilized at 121° C. for 15 min.
(§4) The experimental strain was cultured to the logarithmic growth phase: under aseptic condition, the experimental strain was inoculated into 100 mL MHB medium and incubated in a constant temperature and humidity incubator at 37° C. for 20-22 hours.
(§5) Preparation of storage solution: weighing the sample to be tested, dissolving it with 1% DMSO solution, preparing a storage solution with a concentration of 2560 μg/mL, weighing a positive reference substance, dissolving it with aseptic distilled water, and configuring a storage solution with a concentration of 2560 μg/mL.
(§6) Preparation of bacterial suspension: under aseptic condition, the experimental strains cultured to logarithmic growth phase were adjusted to 0.5 MCF turbidity standard with MHB medium and diluted according to 1:10, and the bacterial suspension with concentration of 10^6 CFU/mL was prepared for standby.
(§7) Dilution of storage solution and inoculation of experimental strain: under aseptic condition, the storage solution was diluted to 256 μg/mL solution. Taking a sterile 96-well plate, adding 200 μL MHB medium to the 12th well, and adding 100 μL MHB medium to each well. Adding 100 μL of positive control solution to the first well, mixing well, and taking 100 μL and discard. Adding 100 μL of the compound sample solution to the second well, mixing well, and then pipetting 100 μL to the third well. After mixing, pipetting 100 μL to the fourth well, and diluting to the 11th well in the same way. Finally, 100 μL was pipetted from the 11th well and discarded. The 12th hole was the growth control without drugs. The concentration of the positive reference substance was 128 μg/mL, the concentrations of the sample solution were 128, 64, […] respectively. Then, 100 μL of the prepared bacterial suspension was added to each well, so that the final concentration of the bacterial liquid in each well was 5×10^5 CFU/mL.
(§8) Incubation: Covering the 96-well plate inoculated with the experimental strains, and incubating in a constant temperature and humidity box at 37° C. for 20-22 hours.

[2] = test system: methicillin-resistant Straphylococcus aureus MRSA 18-575; assay: MIC by microbroth dilution, MRSA 18-575; type: cell-based; conditions: strain MRSA 18-575
Description: as §1, §2, §3, §4, §5, §6, §7, §8

[3] = test system: vancomycin-resistant Enterococci VRE 18-80; assay: MIC by microbroth dilution, VRE 18-80; type: cell-based; conditions: strain VRE 18-80
Description: as §1, §2, §3, §4, §5, §6, §7, §8

[4] = test system: vancomycin-resistant Enterococci VRE 18-94; assay: MIC by microbroth dilution, VRE 18-94; type: cell-based; conditions: strain VRE 18-94
Description: as §1, §2, §3, §4, §5, §6, §7, §8

[5] = test system: multidrug-resistant Pseudomonas aeruginosa MDR-PA 18-174; assay: MIC by microbroth dilution, MDR-PA 18-174; type: cell-based; conditions: for Minimum bacteriostatic concentration: strain MDR-PA 18-174
Description: as §1, §2, §3, §4, §5, §6, §7, §8

[6] = test system: multidrug-resistant Pseudomonas aeruginosa MDR-PA 18-202; assay: MIC by microbroth dilution, MDR-PA 18-202; type: cell-based; conditions: strain MDR-PA 18-202
Description: as §1, §2, §3, §4, §5, §6, §7, §8

[7] = test system: carbapenem-resistant Acinetobacter baumannii CR-AB 18-183; assay: MIC by microbroth dilution, CR-AB 18-183; type: cell-based; conditions: strain CR-AB 18-183
Description: as §1, §2, §3, §4, §5, §6, §7, §8

[8] = test system: carbapenem-resistant Acinetobacter baumannii CR-AB 18-560; assay: MIC by microbroth dilution, CR-AB 18-560; type: cell-based; conditions: strain CR-AB 18-560
Description: as §1, §2, §3, §4, §5, §6, §7, §8

[9] = DPPH radical scavenging activity assay; conditions: for DPPH clearance rate: n = 3
Description: The antioxidant activity of the hydroxytyrosol cinnamic acid ester was measured by a DPPH radical scavenging activity assay. 2,2-Diphenyl-1-picryl hydrazyl (DPPH) is an organic compound composed of a stable organic radical. In the DPPH molecule, due to the presence of multiple electron-withdrawing —NO2 and large π bonds of the benzene ring, nitrogen free radical is stabilized. Its methanol solution is purple and has a maximum absorption peak at 517 nm. After the addition of an antioxidant, DPPH captures an electron to be paired with the free electron, and the purple fades and turns into a yellow substance. The absorption at 517 nm disappears, and the degree of fading is quantitatively related to the number of electrons it captures. Based on this principle, a spectrophotometer is used to detect the change of the absorbance of the DPPH radical and the sample solution, and the ability of the sample to provide hydrogen atoms and scavenge free radicals can be measured. measuring exact amount of 2,2-diphenyl-1-picryl hydrazyl (DPPH) and dissolving in toluene to prepare a 0.2 mmoL/L DPPH solution, stored at 0° C. in dark. Vc (positive control), hydroxytyrosol cinnamic acid ester (sample), hydroxytyrosol (control) and cinnamic acid (control). The sample solution was subjected to gradient dilution with toluene, and three sets of controls were separately dissolved in a test tube with a certain amount of toluene to prepare the same concentration gradient as the sample. Sample liquid absorbance measurement: Take 2 mL of sample solution (Table 1 Vc, B, C), add 2 mL of DPPH solution with concentration of 2×10^−4 moL/L, mix and react in the dark at room temperature for 30 min, adjust to zero with toluene, and measure at 517 nm. The absorbance Ai was simultaneously measured for the absorbance Aj of 2 mL of toluene mixed with 2 mL of the sample solution and the absorbance Ao of 2 mL of DPPH solution mixed with 2 mL of toluene (The experimental results are shown in Table 2). Clearance calculation: Clearance Rate (%)=[1−(Ai−Aj)/Ao]*100%

[10] = test system: drug-resistant bacteria; assay: Antibacterial activity test, summary over all experimental strains; type: cell-based; conditions: text summary of FIGS. 2-3 and Table 4
Description: as §1, §2, §3
The experimental strain was cultured to the logarithmic growth phase: under aseptic condition, the experimental strain was inoculated into 100 mL MHB medium and incubated in a constant temperature and humidity incubator at 37° C. for 20-22 hours. […]

Row | Molecule | Minimum bacteriostatic concentration [1] [µg/mL] | Minimum bacteriostatic concentration [2] [µg/mL] | Minimum bacteriostatic concentration [3] [µg/mL] | Minimum bacteriostatic concentration [4] [µg/mL] | Minimum bacteriostatic concentration [5] [µg/mL] | Minimum bacteriostatic concentration [6] [µg/mL] | Minimum bacteriostatic concentration [7] [µg/mL] | Minimum bacteriostatic concentration [8] [µg/mL] | DPPH clearance rate ([9]; 1.76 ppm) [%] | DPPH clearance rate ([9]; 8.80 ppm) [%] | DPPH clearance rate ([9]; 21.12 ppm) [%] | DPPH clearance rate ([9]; 42.24 ppm) [%] | DPPH clearance rate ([9]; 79.20 ppm) [%] | DPPH clearance rate ([9]; 112.64 ppm) [%] | DPPH clearance rate ([9]; 281.60 ppm) [%] | DPPH clearance rate ([9]; 492.80 ppm) [%] | DPPH clearance rate ([9]; 792.00 ppm) [%] | DPPH clearance rate ([9]; 915.20 ppm) [%] | other results
1 | Gentamicin | 128 | 2 | 0.0625 | >128 | 0.0625 | 0.0625 | >128 | >128 | – | – | – | – | – | – | – | – | – | – | –
2 | Cc1nnc(SCC2=C(C(=O)O)N3C(=O)[C@@H](NC(=O)Cn4cnnn4)[C@H]3SC2)s1 [Cefazolin sodium] | >128 | >128 | 32 | >128 | 8 | 128 | >128 | >128 | – | – | – | – | – | – | – | – | – | – | –
3 | O=C(O)C=Cc1ccccc1 [Cinnamic acid] | >128 | >128 | >128 | >128 | >128 | >128 | >128 | >128 | 6.45 | 8.20 | 14.52 | 20.33 | 31.75 | 38.62 | 54.12 | 59.60 | 70.53 | 71.89 | inhibitory effect on drug-resistant bacteria [10]: no inhibitory effect
4 | O=C(/C=C\c1ccccc1)OCCc1ccc(O)c(O)c1 [Hydroxytyrosol cinnamic acid ester, (Z)-3,4-Dihydroxyphenethyl 3-Phenylacrylate] | 32 | >128 | >128 | >128 | 64 | >128 | >128 | >128 | 0.56 | 16.52 | 31.75 | 43.52 | 55.11 | 68.53 | 76.22 | 80.95 | 84.32 | 85.03 | antioxidant activity [9]: excellent antioxidant activity; MIC ([1]; Staphylococcus aureus, multi-drug resistant Straphylococcus aureus MRSA (text summary, strain number not given)): 32 µg/mL (≈ 113 µM); MIC ([5]; multi-drug resistant Pseudomonas aeruginosa MDR-PA (text summary, strain number not given)): 64 µg/mL (≈ 225 µM)
5 | CO/N=C(\C(=O)N[C@@H]1C(=O)N2C(C(=O)O)=C(CSc3nc(=O)c(=O)[nH]n3C)CS[C@H]12)c1csc(N)n1 [Ceftriaxone sodium] | >128 | >128 | 8 | >128 | 128 | 16 | >128 | >128 | – | – | – | – | – | – | – | – | – | – | –
6 | OCCc1ccc(O)c(O)c1 [Hydroxytyrosol] | >128 | >128 | >128 | >128 | >128 | >128 | >128 | >128 | – | – | – | – | – | – | – | – | – | – | inhibitory effect on drug-resistant bacteria [10]: no inhibitory effect
7 | O=C1O[C@H]([C@@H](O)CO)C(O)=C1O [Vc] | – | – | – | – | – | – | – | – | 23.16 | 33.47 | 79.63 | 89.55 | 97.42 | 97.53 | 98.29 | 99.06 | 99.10 | 99.28 | –
